Results from PubChem BioAssay (NCI).
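Where inhibition never reached the appropriate level, the endpoint shown equals the highest concentration tested. Otherwise, values were interpolated linearly from a five-concentration, 48-hour dose response in 96-well plates. The concentration for full growth arrest is given as TGI.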

Columns and labels:
Test in all cases: growth of human tumour cells (NCI), 48 h
786-0 renal = test system: 786-0 renal
A549 NSCLC = test system: A549 NSCLC
ACHN renal = test system: ACHN renal
BT-549 breast = test system: BT-549 breast
CAKI-1 renal = test system: CAKI-1 renal
COLO 205 colon = test system: COLO 205 colon
DU-145 prostate = test system: DU-145 prostate
EKVX NSCLC = test system: EKVX NSCLC
HCC-2998 colon = test system: HCC-2998 colon
HCT-116 colon = test system: HCT-116 colon
HCT-15 colon = test system: HCT-15 colon
HOP-62 NSCLC = test system: HOP-62 NSCLC
HOP-92 NSCLC = test system: HOP-92 NSCLC
HS 578T breast = test system: HS 578T breast
HT29 colon = test system: HT29 colon
IGROV1 ovarian = test system: IGROV1 ovarian
K-562 leukemia = test system: K-562 leukemia
KM12 colon = test system: KM12 colon
LOX IMVI melanoma = test system: LOX IMVI melanoma
M14 melanoma = test system: M14 melanoma
MALME-3M melanoma = test system: MALME-3M melanoma
MCF7 breast = test system: MCF7 breast
MDA-MB-231 breast = test system: MDA-MB-231 breast
MDA-MB-435 = test system: MDA-MB-435
MDA-N = test system: MDA-N
MOLT-4 leukemia = test system: MOLT-4 leukemia
NCI-H226 lung = test system: NCI-H226 lung
NCI-H23 lung = test system: NCI-H23 lung
NCI-H460 lung = test system: NCI-H460 lung
NCI-H522 lung = test system: NCI-H522 lung
NCI/ADR-RES ovarian = test system: NCI/ADR-RES ovarian
OVCAR-3 ovarian = test system: OVCAR-3 ovarian
OVCAR-4 ovarian = test system: OVCAR-4 ovarian
OVCAR-5 ovarian = test system: OVCAR-5 ovarian
OVCAR-8 ovarian = test system: OVCAR-8 ovarian
PC-3 prostate = test system: PC-3 prostate
RPMI-8226 leukemia = test system: RPMI-8226 leukemia
RXF 393 renal = test system: RXF 393 renal
SF-268 CNS = test system: SF-268 CNS
SF-295 CNS = test system: SF-295 CNS
SK-MEL-2 melanoma = test system: SK-MEL-2 melanoma
SK-MEL-28 melanoma = test system: SK-MEL-28 melanoma
SK-MEL-5 melanoma = test system: SK-MEL-5 melanoma
SK-OV-3 ovarian = test system: SK-OV-3 ovarian
SN12C renal = test system: SN12C renal
SNB-19 CNS = test system: SNB-19 CNS
SNB-75 CNS = test system: SNB-75 CNS
SR leukemia = test system: SR leukemia
SW-620 colon = test system: SW-620 colon
T-47D breast = test system: T-47D breast
TK-10 renal = test system: TK-10 renal
U251 CNS = test system: U251 CNS
UACC-257 melanoma = test system: UACC-257 melanoma
UACC-62 melanoma = test system: UACC-62 melanoma
UO-31 renal = test system: UO-31 renal
A498 renal = test system: A498 renal
CCRF-CEM leukemia = test system: CCRF-CEM leukemia
HL-60(TB) leukemia = test system: HL-60(TB) leukemia
SF-539 CNS = test system: SF-539 CNS

Structure (SMILES): CC1CCc2sc3[nH]c(=S)n(-c4ccccc4)c(=O)c3c2C1 (stereo unspecified)
- TGI (786-0 renal): > 100 µM
- TGI (A549 NSCLC): > 100 µM
- TGI (ACHN renal): > 100 µM
- TGI (BT-549 breast): > 100 µM
- TGI (CAKI-1 renal): > 100 µM
- TGI (COLO 205 colon): > 100 µM
- TGI (DU-145 prostate): > 100 µM
- TGI (EKVX NSCLC): > 100 µM
- TGI (HCC-2998 colon): 67.8 µM
- TGI (HCT-116 colon): > 100 µM
- TGI (HCT-15 colon): > 100 µM
- TGI (HOP-62 NSCLC): > 100 µM
- TGI (HOP-92 NSCLC): > 100 µM
- TGI (HS 578T breast): > 100 µM
- TGI (HT29 colon): > 100 µM
- TGI (IGROV1 ovarian): > 100 µM
- TGI (K-562 leukemia): > 100 µM
- TGI (KM12 colon): > 100 µM
- TGI (LOX IMVI melanoma): > 100 µM
- TGI (M14 melanoma): > 100 µM
- TGI (MALME-3M melanoma): > 100 µM
- TGI (MCF7 breast): > 100 µM
- TGI (MDA-MB-231 breast): > 100 µM
- TGI (MDA-MB-435): > 100 µM
- TGI (MDA-N): > 100 µM
- TGI (MOLT-4 leukemia): > 100 µM
- TGI (NCI-H226 lung): > 100 µM
- TGI (NCI-H23 lung): > 100 µM
- TGI (NCI-H460 lung): > 100 µM
- TGI (NCI-H522 lung): > 100 µM
- TGI (NCI/ADR-RES ovarian): > 100 µM
- TGI (OVCAR-3 ovarian): 85.3 µM
- TGI (OVCAR-4 ovarian): > 100 µM
- TGI (OVCAR-5 ovarian): > 100 µM
- TGI (OVCAR-8 ovarian): > 100 µM
- TGI (PC-3 prostate): > 100 µM
- TGI (RPMI-8226 leukemia): > 100 µM
- TGI (RXF 393 renal): > 100 µM
- TGI (SF-268 CNS): > 100 µM
- TGI (SF-295 CNS): > 100 µM
- TGI (SK-MEL-2 melanoma): 93.7 µM
- TGI (SK-MEL-28 melanoma): > 100 µM
- TGI (SK-MEL-5 melanoma): > 100 µM
- TGI (SK-OV-3 ovarian): > 100 µM
- TGI (SN12C renal): > 100 µM
- TGI (SNB-19 CNS): > 100 µM
- TGI (SNB-75 CNS): 91 µM
- TGI (SR leukemia): > 100 µM
- TGI (SW-620 colon): > 100 µM
- TGI (T-47D breast): > 100 µM
- TGI (TK-10 renal): > 100 µM
- TGI (U251 CNS): > 100 µM
- TGI (UACC-257 melanoma): > 100 µM
- TGI (UACC-62 melanoma): > 100 µM
- TGI (UO-31 renal): > 100 µM

Structure (SMILES): S=C(Nc1ccccn1)Nc1ccccc1Cl
- TGI (786-0 renal): > 100 µM
- TGI (A498 renal): > 100 µM
- TGI (A549 NSCLC): > 100 µM
- TGI (ACHN renal): > 100 µM
- TGI (BT-549 breast): > 100 µM
- TGI (CAKI-1 renal): > 100 µM
- TGI (CCRF-CEM leukemia): > 100 µM
- TGI (COLO 205 colon): > 100 µM
- TGI (DU-145 prostate): > 100 µM
- TGI (EKVX NSCLC): > 55.9 µM
- TGI (HCC-2998 colon): > 100 µM
- TGI (HCT-116 colon): > 100 µM
- TGI (HCT-15 colon): > 100 µM
- TGI (HL-60(TB) leukemia): > 100 µM
- TGI (HOP-62 NSCLC): > 100 µM
- TGI (HS 578T breast): > 52.2 µM
- TGI (HT29 colon): > 100 µM
- TGI (IGROV1 ovarian): > 67 µM
- TGI (K-562 leukemia): > 100 µM
- TGI (KM12 colon): > 83.4 µM
- TGI (LOX IMVI melanoma): > 100 µM
- TGI (M14 melanoma): > 100 µM
- TGI (MALME-3M melanoma): > 79.5 µM
- TGI (MCF7 breast): > 100 µM
- TGI (MDA-MB-231 breast): > 100 µM
- TGI (MDA-MB-435): > 100 µM
- TGI (MDA-N): > 100 µM
- TGI (MOLT-4 leukemia): > 100 µM
- TGI (NCI-H226 lung): > 100 µM
- TGI (NCI-H23 lung): > 100 µM
- TGI (NCI-H460 lung): > 100 µM
- TGI (NCI-H522 lung): 37.9 µM
- TGI (NCI/ADR-RES ovarian): > 100 µM
- TGI (OVCAR-3 ovarian): > 100 µM
- TGI (OVCAR-4 ovarian): > 100 µM
- TGI (OVCAR-5 ovarian): > 100 µM
- TGI (OVCAR-8 ovarian): > 100 µM
- TGI (PC-3 prostate): > 100 µM
- TGI (RPMI-8226 leukemia): > 100 µM
- TGI (RXF 393 renal): > 100 µM
- TGI (SF-268 CNS): > 78 µM
- TGI (SF-295 CNS): > 100 µM
- TGI (SF-539 CNS): > 100 µM
- TGI (SK-MEL-2 melanoma): > 100 µM
- TGI (SK-MEL-28 melanoma): > 100 µM
- TGI (SK-MEL-5 melanoma): > 100 µM
- TGI (SK-OV-3 ovarian): > 100 µM
- TGI (SN12C renal): > 100 µM
- TGI (SNB-19 CNS): > 31.6 µM
- TGI (SNB-75 CNS): > 80.4 µM
- TGI (SR leukemia): > 100 µM
- TGI (SW-620 colon): > 100 µM
- TGI (T-47D breast): > 100 µM
- TGI (TK-10 renal): > 100 µM
- TGI (U251 CNS): > 100 µM
- TGI (UACC-257 melanoma): > 100 µM
- TGI (UACC-62 melanoma): > 100 µM
- TGI (UO-31 renal): > 100 µM

Structure (SMILES): CCOC(=O)C(C(=O)OCC)=C1NC2(c3ccccc3Nc3ccc(C)cc32)C(C(=O)OC)S1 (stereo unspecified)
- TGI (786-0 renal): > 100 µM
- TGI (A498 renal): > 100 µM
- TGI (A549 NSCLC): > 100 µM
- TGI (ACHN renal): > 100 µM
- TGI (BT-549 breast): > 100 µM
- TGI (CAKI-1 renal): > 100 µM
- TGI (CCRF-CEM leukemia): > 100 µM
- TGI (COLO 205 colon): 57.9 µM
- TGI (DU-145 prostate): > 100 µM
- TGI (EKVX NSCLC): 80.9 µM
- TGI (HCC-2998 colon): > 100 µM
- TGI (HCT-116 colon): > 100 µM
- TGI (HCT-15 colon): > 100 µM
- TGI (HL-60(TB) leukemia): > 100 µM
- TGI (HOP-62 NSCLC): > 100 µM
- TGI (HOP-92 NSCLC): 44.4 µM
- TGI (HS 578T breast): 69.2 µM
- TGI (HT29 colon): > 100 µM
- TGI (IGROV1 ovarian): > 100 µM
- TGI (K-562 leukemia): > 100 µM
- TGI (KM12 colon): > 100 µM
- TGI (LOX IMVI melanoma): > 100 µM
- TGI (M14 melanoma): > 100 µM
- TGI (MALME-3M melanoma): 63.5 µM
- TGI (MCF7 breast): > 100 µM
- TGI (MDA-MB-435): > 100 µM
- TGI (MDA-N): > 100 µM
- TGI (MOLT-4 leukemia): > 100 µM
- TGI (NCI-H226 lung): > 100 µM
- TGI (NCI-H23 lung): > 100 µM
- TGI (NCI-H460 lung): > 100 µM
- TGI (NCI-H522 lung): > 100 µM
- TGI (NCI/ADR-RES ovarian): > 100 µM
- TGI (OVCAR-3 ovarian): > 100 µM
- TGI (OVCAR-4 ovarian): > 100 µM
- TGI (OVCAR-5 ovarian): > 100 µM
- TGI (OVCAR-8 ovarian): > 100 µM
- TGI (PC-3 prostate): > 100 µM
- TGI (RPMI-8226 leukemia): > 100 µM
- TGI (RXF 393 renal): 70.6 µM
- TGI (SF-268 CNS): > 100 µM
- TGI (SF-295 CNS): > 100 µM
- TGI (SF-539 CNS): > 100 µM
- TGI (SK-MEL-2 melanoma): 63.1 µM
- TGI (SK-MEL-28 melanoma): > 100 µM
- TGI (SK-MEL-5 melanoma): 66.9 µM
- TGI (SK-OV-3 ovarian): > 100 µM
- TGI (SN12C renal): 18.2 µM
- TGI (SNB-19 CNS): > 100 µM
- TGI (SNB-75 CNS): 62.4 µM
- TGI (SR leukemia): > 100 µM
- TGI (SW-620 colon): > 100 µM
- TGI (T-47D breast): 67.2 µM
- TGI (TK-10 renal): > 100 µM
- TGI (U251 CNS): > 100 µM
- TGI (UACC-257 melanoma): > 100 µM
- TGI (UACC-62 melanoma): > 100 µM
- TGI (UO-31 renal): > 100 µM
